Laboratory results reported in US20230390319A1, “INTERFERON GENE STIMULATOR COMPOSITION COMPRISING INDOLIZINE DERIVATIVE AS ACTIVE INGREDIENT” (AJOU UNIVERSITY INDUSTRY-ACADEMIC COOPERATION FOUNDATION, priority 2020, published 2023).

What was measured:
ISRE reporter signal = experiment: ISRE luciferase reporter assay, THP-1 cells co-treated with compound and cGAMP; assay type: cell-based, Human; conditions: THP-1 cells, 20 μM of each compound, co-treated with cGAMP (1 μg/ml), 24 hours
Method: (§1) Human monocytic THP-1 wild-type (WT) and STING knockout (KO) cell lines were obtained from InvivoGen. Cells were cultured in 1×RPMI 1640 medium containing 10% fetal bovine serum (FBS, Hyclone), 2.05 mM L-glutamine (Hyclone) and 1% penicillin (Corning) in a humidified incubator at 37° C. under 5% CO2.
To confirm immune responses, THP-1 cells were placed in 384-well plates (Grenier), and treated with each compound and cGAMP (1 μg/ml), and after 24 hours, ISRE activity was analyzed. QUANTI-Luc assay (InvivoGen) was performed using the cell culture supernatant to confirm the luciferase reporter gene signal. Fluorescent signals were measured using a TECAN micro plate reader SPARK, and the results were normalized to DMSO control.
(§2) THP-1 cells were co-treated with each of 86 indolizine derivatives and a very small amount of cGAMP (1 μg/ml), the immune response of the THP-1 cells was examined by ISRE reporter assay, and the cytotoxicity of co-treatment was also evaluated (Table 1). All results were compared by normalization to the reporter assay results obtained by treatment with cGAMP alone. […] Thus, Compound 42 was used in subsequent experiments.

THP-1 cells = experiment: Cell viability assay (CellTiter Clo) in THP-1 cells; assay type: cell-based, Human; conditions: THP-1 cells, 20 μM of each compound, co-treated with cGAMP (1 μg/ml)
Method: as §1
Cells were analyzed using CellTiter Clo (CTG, Promega). […] was measured using a TECAN micro plate reader SPARK. Results were normalized to DMSO control.
as §2

Row | SMILES | Normalized RU (relative unit of ISRE reporter signal) (ISRE reporter signal) | Normalized cell viability (THP-1 cells)
1 | CCN(CC)c1ccc(C(=O)c2cc(-c3ccc(OC)cc3)c3cc(C(C)=O)ccn23)cc1 [Compound 39] | 1.47 | 1.18
2 | CCN(CC)c1ccc(C(=O)c2cc(-c3ccc(N(C)C)cc3)c3cc(C(C)=O)ccn23)cc1 [Compound 40] | 1.09 | 1.17
3 | O=C(c1ccc(C(F)(F)F)cc1)c1cc(-c2ccc(C(F)(F)F)cc2)c2ccccn12 [Compound 41] | 3.85 | 1.25
4 | O=C(c1ccc(C(F)(F)F)cc1)c1cc(-c2ccccc2)c2ccccn12 [Compound 43] | 1.08 | 1.13
5 | COc1ccc(-c2cc(C(=O)c3ccc(C(F)(F)F)cc3)n3ccccc23)cc1 [Compound 44] | 0.89 | 1.24
6 | CN(C)c1ccc(-c2cc(C(=O)c3ccc(C(F)(F)F)cc3)n3ccccc23)cc1 [Compound 45] | 1.28 | 1.22
7 | O=C(c1ccccc1)c1cc(-c2ccc(C(F)(F)F)cc2)c2ccccn12 [Compound 46] | 1.08 | 1.25
8 | CC(=O)c1ccc(-c2cc(C(=O)c3ccccc3)n3ccccc23)cc1 [Compound 47] | 1.15 | 1.12
9 | O=C(c1ccccc1)c1cc(-c2ccccc2)c2ccccn12 [Compound 48] | 1.37 | 1.18
10 | COc1ccc(-c2cc(C(=O)c3ccccc3)n3ccccc23)cc1 [Compound 49] | 1.17 | 1.21
11 | CN(C)c1ccc(-c2cc(C(=O)c3ccccc3)n3ccccc23)cc1 [Compound 50] | 1.18 | 1.30
12 | COc1ccc(C(=O)c2cc(-c3ccc(C(F)(F)F)cc3)c3ccccn23)cc1 [Compound 51] | 6.08 | 1.32
13 | COc1ccc(C(=O)c2cc(-c3ccc(C(C)=O)cc3)c3ccccn23)cc1 [Compound 52] | 1.61 | 1.15
14 | COc1ccc(C(=O)c2cc(-c3ccccc3)c3ccccn23)cc1 [Compound 53] | 1.30 | 1.18
15 | COc1ccc(C(=O)c2cc(-c3ccc(OC)cc3)c3ccccn23)cc1 [Compound 54] | 1.51 | 1.16
16 | COc1ccc(C(=O)c2cc(-c3ccc(N(C)C)cc3)c3ccccn23)cc1 [Compound 55] | 1.65 | 1.24
17 | CCN(CC)c1ccc(C(=O)c2cc(-c3ccc(C(F)(F)F)cc3)c3ccccn23)cc1 [Compound 56] | 1.40 | 1.23
18 | CCN(CC)c1ccc(C(=O)c2cc(-c3ccc(C(C)=O)cc3)c3ccccn23)cc1 [Compound 57] | 0.93 | 1.40
19 | CCN(CC)c1ccc(C(=O)c2cc(-c3ccccc3)c3ccccn23)cc1 [Compound 58] | 0.66 | 1.01
20 | CCN(CC)c1ccc(C(=O)c2cc(-c3ccc(OC)cc3)c3ccccn23)cc1 [Compound 59] | 1.27 | 1.09
21 | CCN(CC)c1ccc(C(=O)c2cc(-c3ccc(N(C)C)cc3)c3ccccn23)cc1 [Compound 60] | 1.25 | 1.28
22 | CC(=O)c1ccn2c(C(=O)c3ccccc3)cc(-c3ccncc3)c2c1 [Compound 61] | 1.98 | 1.11
23 | CC(=O)c1ccn2c(C(=O)c3ccccc3)cc(-c3ccc(C)c(N)c3)c2c1 [Compound 62] | 2.86 | 1.23
24 | CC(=O)c1ccn2c(C(=O)c3ccccc3)cc(-c3ccc(N)cc3)c2c1 [Compound 63] | 2.08 | 0.98

Row | SMILES | Normalized RU (relative unit of ISRE reporter signal) (ISRE reporter signal) | Normalized cell viability (THP-1 cells)
25 | CCN(CC)c1ccc(-c2cc(C(=O)c3ccccc3)n3ccc(C(C)=O)cc23)cc1 [Compound 64] | 1.13 | 1.24
26 | CCCN(CCC)c1ccc(-c2cc(C(=O)c3ccccc3)n3ccc(C(C)=O)cc23)cc1 [Compound 65] | 1.13 | 1.25
27 | CC(=O)c1ccn2c(C(=O)c3ccccc3)cc(-c3ccc(C(=O)O)cc3)c2c1 [Compound 66] | 1.16 | 1.32
28 | O=C(c1ccccc1)c1cc(-c2ccncc2)c2ccccn12 [Compound 67] | 2.03 | 1.34
29 | Cc1ccc(-c2cc(C(=O)c3ccccc3)n3ccccc23)cc1N [Compound 68] | 3.16 | 1.17
30 | Nc1ccc(-c2cc(C(=O)c3ccccc3)n3ccccc23)cc1 [Compound 69] | 2.47 | 1.19
31 | CCN(CC)c1ccc(-c2cc(C(=O)c3ccccc3)n3ccccc23)cc1 [Compound 70] | 1.21 | 1.19
32 | CCCN(CCC)c1ccc(-c2cc(C(=O)c3ccccc3)n3ccccc23)cc1 [Compound 71] | 0.96 | 1.01
33 | CC(=O)c1cc(-c2ccc(C(F)(F)F)cc2)c2cc(C(F)(F)F)ccn12 [Compound 73] | 1.54 | 0.78
34 | CC(=O)c1ccc(-c2cc(C(C)=O)n3ccc(C(F)(F)F)cc23)cc1 [Compound 74] | 2.06 | 0.75
35 | CC(=O)c1cc(-c2ccccc2)c2cc(C(F)(F)F)ccn12 [Compound 75] | 1.76 | 1.25
36 | COc1ccc(-c2cc(C(C)=O)n3ccc(C(F)(F)F)cc23)cc1 [Compound 76] | 2.02 | 1.14
37 | CC(=O)c1cc(-c2ccc(N(C)C)cc2)c2cc(C(F)(F)F)ccn12 [Compound 77] | 1.24 | 1.28
38 | CC(=O)c1ccn2c(C(C)=O)cc(-c3ccc(C(F)(F)F)cc3)c2c1 [Compound 78] | 2.43 | 0.46
39 | CC(=O)c1ccc(-c2cc(C(C)=O)n3ccc(C(C)=O)cc23)cc1 [Compound 79] | 3.80 | 1.19
40 | CC(=O)c1ccn2c(C(C)=O)cc(-c3ccccc3)c2c1 [Compound 80] | 1.98 | 1.22
41 | COc1ccc(-c2cc(C(C)=O)n3ccc(C(C)=O)cc23)cc1 [Compound 81] | 2.27 | 1.17
42 | CC(=O)c1ccn2c(C(C)=O)cc(-c3ccc(N(C)C)cc3)c2c1 [Compound 82] | 2.57 | 1.16
43 | CC(=O)c1cc(-c2ccc(C(F)(F)F)cc2)c2ccccn12 [Compound 83] | 0.98 | 1.22
44 | CC(=O)c1ccc(-c2cc(C(C)=O)n3ccccc23)cc1 [Compound 84] | 2.37 | 1.10
45 | CC(=O)c1cc(-c2ccccc2)c2ccccn12 [Compound 85] | 2.90 | 1.22
46 | COc1ccc(-c2cc(C(C)=O)n3ccccc23)cc1 [Compound 86] | 2.46 | 1.22
47 | CC(=O)c1cc(-c2ccc(N(C)C)cc2)c2ccccn12 [Compound 87] | 2.59 | 1.30
